This note sets out measurements from US20240216369A1, “THE USE OF A SPLICING MODULATOR FOR A TREATMENT SLOWING PROGRESSION OF HUNTINGTON'S DISEASE” (Novartis AG, priority 2019, published 2024).

A short description of data set [1]: First-in-human proof of concept study of oral branaplam in infants with Type 1 SMA: PK and safety. The class given is in vivo. From the text:
• Principle set-up of a pediatric ACAT/PBPK model in GastroPlus™ software including physico-chemical parameters, physiological parameters, and formulation factors. The ACAT model was linked to a full PBPK model in which tissue-to-plasma concentration ratios were estimated via in silico method provided by GastroPlus™ software. • Estimation of the clearance (CL) using plasma concentrations of branaplam from an open-label multi-part first-in-human proof of concept study of oral branaplam, Part 1 only. […] The branaplam doses were escalated in subsequent cohorts until MTD was determined or when PK results confirmed that the MTD could not be reached due to a potential pharmacokinetic exposure plateau at higher doses. […]
The aim of part one of this study was to determine the safety and tolerability of ascending weekly doses and to estimate the maximum tolerated dose (MTD) of oral/enteral branaplam (see Example 3) in infants with Type 1 SMA. All patients had exactly 2 copies of the SMN2 gene, as determined e.g. by quantitative real time PCR or droplet digital PCR.
Patients were dosed once weekly with branaplam. The branaplam doses were escalated in subsequent cohorts until MTD was determined or when PK results confirmed that the MTD could not be reached due to a potential pharmacokinetic exposure plateau at higher doses. […]

Data set [2] is described as follows: GastroPlus ACAT/PBPK physico-chemical and formulation input parameters. The following applies: for controlled-release dissolution profile, release: fitted to plasma profile. An excerpt: The pharmacokinetic (PK) model in adult subjects was developed using an Advanced Compartmental And Transit (ACAT)/Physiologically Based Pharmacokinetic (PBPK) model in GastroPlus™ software, Version 9.6 (SimulationPlus, Lancaster, CA, USA).
• Principle set-up of a pediatric ACAT/PBPK model in GastroPlus™ software including physico-chemical parameters, physiological parameters, and formulation factors. The ACAT model was linked to a full PBPK model in which tissue-to-plasma concentration ratios were estimated via in silico method provided by GastroPlus™ software. • Estimation of the clearance (CL) using plasma concentrations of branaplam from an open-label multi-part first-in-human proof of concept study of oral branaplam, Part 1 only. The aim of Part 1 of this study was to determine the safety and tolerability of ascending weekly doses and to estimate the maximum tolerated dose (MTD) of oral/enteral branaplam (formulation described in Example 3) in infants with Type 1 SMA. All patients had exactly 2 copies of the SMN2 gene. Patients were dosed once weekly with branaplam. The branaplam doses were escalated in subsequent cohorts until MTD was determined or when PK results confirmed that the MTD could not be reached due to a potential pharmacokinetic exposure plateau at higher doses. The starting dose referring to the free base was 6 mg/m^2 (equal to 0.3125 mg/kg). Subsequent doses were 12 mg/m^2, 24 mg/m^2, 48 mg/m^2 and 60 mg/m^2 (0.625 mg/kg, 1.25 mg/kg, 2.5 mg/kg and 3.125 mg/kg, respectively). 14 patients were enrolled in Part 1; 13 patients were exposed to branaplam. The duration of exposure ranged from 4-33 months, 7 patients remain in the study. Six of the 7 patients are receiving 60 mg/m^2, 1 patient is receiving 48 mg/m^2.
The in vivo solubility parameter for branaplam was newly assessed to consider the impact of the solubilizer cyclodextrin (CD), which is present in the currently used formulation (Example 3), on the solubility of branaplam. […]

Where “and” joins values, the source holds several entries; their conditions need not be identical. Equal entries are not always repeated.

On to `CC1(C)CC(Oc2ccc(-c3ccc(-c4cn[nH]c4)cc3O)nn2)CC(C)(C)N1` [Compound 18, 5-(1H-pyrazol-4-yl)-2-(6-((2,2,6,6-tetramethylpiperidin-4-yl)oxy)pyridazin-3-yl)phenol], for which the Tmax in data set [1] (human, plasma, Type 1 SMA patients, oral, nominal dose range 6 to 60 mg/m^2, read-out: median time of maximum concentration (Tmax) in plasma) was in the range of 2.97 to 4 h. Besides, in data set [1] (infants with Type 1 SMA, once weekly 6 to 60 mg/m^2, exposure 4-33 months), the dose-limiting toxicity result is listed as “No dose-limiting toxicity was observed”. Further, the figures for the “controlled-release dissolution profile, release” value in data set [2] (at 0.25 h) and in data set [2] (at 1 h) were 2% and 5%, respectively. The Solubility in data set [2] (pH 6.8, optimized with GastroPlus on observed concentration-time data (cyclodextrin formulation), listed as branaplam) is 0.088 at pH 6.8 (Optimized value using GastroPlus ™ software mg/mL and 0.088 at pH 6.8 (Optimized value using GastroPlus ™ based mg/mL.
